Assay results reported in patent US20200121589A1, “COMPOSITIONS FOR DRUG DELIVERY AND METHODS OF USE THEREOF” (Viramal Limited, priority 2017, published 2020).
Several values for one entry are separate records, joined by “and”; a condition that tells them apart may be missing. Equal entries are not always repeated.

Legend:
[1] = Danazol concentrations in serum, peritoneal fluid and peritoneal tissue after oral or vaginal administration to female human subjects; assay type: in vivo; conditions: for Systemic, Average / Systemic: serum
Method: The following example illustrates an administering of either a vaginal or oral formulation of danazol to female human subjects. The vaginal formulation was prepared as described above in Example 2. The oral formulation contained a total dose of 200 mg of danazol present in a capsule body of titanium dioxide and gelatin, and formulated with starch, lactose, talcum and magnesium stearate.
Subjects were administered danazol daily for five days. Six subjects were given a total dose of 600 mg of the oral danazol formulation (3×200 mg) once daily for five days. Seven subjects were given the vaginal formulation containing a total of 100 mg danazol. Samples were then taken from each subject in order to determine the concentration of danazol present systemically, in peritoneal fluid, and in peritoneal tissue. In order to quantify the amount of danazol present systemically, serum samples were collected from each subject and analyzed as described above in Example 3. In order to determine the amount of danazol present in the peritoneal fluid and tissue, endometrial lesions or suspected lesions were harvested, and the amount of danazol present in the samples was quantified as described in Example 3.

[2] = in vivo; cited from earlier work
[3] = Oral - 600 mg Danazol daily for five days, average of six subjects
[4] = Oral - 600 mg Danazol daily for five days, individual subject
[5] = Vaginal - 100 mg Danazol daily for five days, average of seven subjects
[6] = Vaginal - 100 mg Danazol daily for five days, individual subject

C#C[C@]1(O)CC[C@H]2[C@@H]3CCC4=Cc5oncc5C[C@]4(C)[C@H]3CC[C@@]21C [Danazol]
Peritoneal Fluid, Average [1, 3]: 83.4 ng/mL
Peritoneal Fluid [1, 4]: 134 ng/mL and 16.2 ng/mL and 132.8 ng/mL and 19.2 ng/mL and 130.7 ng/mL and 67.7 ng/mL
Systemic, Average [1, 3]: 156.5 ng/mL
Systemic [1, 4]: 209 ng/mL and 141.3 ng/mL and 167 ng/mL and 109.7 ng/mL and 198.3 ng/mL and 113.4 ng/mL
Estimated Peritoneal Tissue, Average [1, 5]: 16.5 ng/mg
Peritoneal Fluid, Average [1, 5]: 1.2 ng/mL
Estimated Peritoneal Tissue [1, 6]: 8.4 ng/mg and 13.2 ng/mg and 13.6 ng/mg and 17.2 ng/mg and 16.4 ng/mg and 29.2 ng/mg and 17.6 ng/mg
Peritoneal Fluid [1, 6]: 1 ng/mL (4×) and 1.2 ng/mL and 1.6 ng/mL and 1.8 ng/mL
Systemic, Average [1, 5]: 4.1 ng/mL
Systemic [1, 6]: 2.1 ng/mL and 3.3 ng/mL and 3.4 ng/mL and 4.3 ng/mL and 4.1 ng/mL and 7.3 ng/mL and 4.4 ng/mL
half-life [2]: 9.7 h
